Assay results reported in US20210299079A1, “MONOMETHYL FUMARATE-CARRIER CONJUGATES AND METHODS OF THEIR USE” (Flagship Pioneering Innovations V, Inc., priority 2018, published 2021).
Counter-ions that a name gives are not always drawn.

How the values were obtained:
[1] = In vitro Colonic Material Stability Assay; format: in vitro ADME; conditions: colonic material slurry in YCFAC media, anaerobic, 1 or 10 μM
In short: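 Anaerobically, a colonic material slurry (15% w/v) was inoculated into YCFAC or other suitable media. Compounds were added at 1 or 10 μM final. Samples taken at 0–2880 min were quenched with acetonitrile containing internal standard and analysed by LC/MS.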

[2] = Stability of conjugates in Simulated Gastric Fluid (SGF); format: in vitro ADME; conditions: SGF pH 1.6 with pepsin, 37° C., 1 μM compound
In short: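 Compound at 1 μM (from 1 mM DMSO stock) in pH 1.6 NaCl medium with FaSSIF powder and 0.1 mg/mL pepsin, mixed at 37° C. Aliquots quenched with equal volume acetonitrile at T0 and regular intervals; LC/MS gives degradation rate.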

[3] = Stability of conjugates in Simulated Intestinal Fluid (SIF); format: in vitro ADME; conditions: SIF pH 6.7 with pancreatin, 37° C., 1 μM compound
In short: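 Compounds at 1 μM in fresh simulated intestinal fluid: FaSSIF powder in pH 6.7 phosphate buffer with pancreatin. Agitated at 37 °C; aliquots taken at T0 and regular intervals, quenched with 1 volume acetonitrile. Degradation rates determined by LC/MS.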

[4] = test system: experimental autoimmune encephalomyelitis (EAE); test: In Vivo EAE Model of Multiple Sclerosis; parameters: species or system C57BL/6J mice; conditions: Study 2, oral, amount approximately equimolar to 100 mg/kg DMF, 28 days
Description: For experimental autoimmune encephalomyelitis (EAE) study, 8- to 11-week-old C57BL/6J mice were anesthetized and subcutaneously injected with […] and […]. Pertussis toxin (200 ng/mouse) was applied i.p. on days 0. Daily clinical evaluation was performed via a 5-point scale, and the clinical progression was observed over 28 days (FIG. 2A). […] At the end of the study, flow cytometry analysis was performed on the spleen (n=8 per group). […] Statistical analysis was performed with GraphPad Prism (GraphPad Software). Unpaired t test was used to assess significance between the control (Vehicle) and each treatment group. For experimental autoimmune encephalomyelitis (EAE) studies, 8- to 11-week old C57BL/6J mice were anesthetized and subcutaneously injected with […] and […]. Pertussis toxin (200 ng/mouse) was applied intraperitoneally on day 0. Daily clinical evaluation as performed using a 5-point scale and the clinical progression was observed over 28 days (FIGS. 2C and 2D).

naïve CD4+ T cells = test: Human Regulatory T Cell Differentiation Assay; format: cell-based; conditions: 6 days; for Cell viability % DMSO: viability dye
Description: Peripheral blood mononuclear cells (PBMCs) from whole blood donated by health volunteers were separated by Ficoll-Paque gradient centrifugation and naïve CD4^+ T cells were subsequently isolated using magnet beads (EasySep™ Human Naïve CD4^+ T Cell Isolation Kit, Cambridge, Mass.). For regulatory T cell (Treg) differentiation assay, naïve CD4^+ T cells were cultured (1-10×10^4 cells) in CTS OpTmizer medium for 6 days and stimulated with 5 ng/ml TGF-β, 100 U/ml IL-2, and ImmunoCult™ Human […] T Cell Activator; Stemcell #10990) with/without our Compounds. Cell viability was determined using a viability dye (eBioscience Fixable Viability Dye eFluor 780: ThermoFisher 65-0865-14) at 1:500 dilution. The cells were gated for Treg, defined as Live, CD11c^−, CD14^−, CD19^−, CD8^−, CD4^+, CD3^+, CD25^+, FOXP3^+. Percent (%) Tregs were calculated as percentage of CD4^+, CD25^+, FOXP3^+ cells over total CD4^+ T cells. Statistical analysis was performed with GraphPad Prism Software Using One-Way ANOVA.

IL-6 = test: Cytokine Release from Human PBMCs: IL-6; format: cell-based; conditions: LPS, 24 hours, Concentration 100 μM
Description: (§1) Human donor blood (8 mL) was collected in sodium citrate CPT tubes and centrifuged at 1,600×g for 20 minutes at room temperature. Buffy coat containing PBMCs was collected and transferred to a 50 mL conical tube containing 30 mL of RPMI-1640 medium at room temperature (supplemented with penicillin-streptomycin). PBMCs samples were centrifuged at 400×g for 10 minutes at 10° C. The pelleted PBMCs were washed twice in 10 ml of RPMI-1640 medium (supplemented with penicillin-streptomycin), then resuspended in RPMI-1640 medium (supplemented with penicillin-streptomycin, fetal bovine serum, and L-Glutamine). PBMCs were filtered through a 70 micron mesh to remove any cellular debris. […] PBMCs in a 96-well plate were rested for 30 minutes in a 37° C., 5% CO2 incubator, then subsequently treated with 10 μI of indicated compound. After 2 hours 10 μL of LPS (0111:64) 1 mg/mL was added to test wells. After 24 hours of incubation at 37° C., 5% CO2, 100 μL of cell supernatant was collected and transferred to a 96-well plate (non-tissue treated, flat bottom). The plate was centrifuged at 350×g for 5 minutes at room temperature, and then the clear supernatant transferred to a new 96-well plate (non-tissue treated, flat bottom). The remaining cells were tested for viability using CellTiter-Glo® Luminescent Cell Viability Assay (Promega). The supernatant was analyzed for TNFα, IL-6 and IL-1β (kit […] Systems), using Luminex Immunoassay Technology (MAGPIX System).

IL-8 = test: Neutrophil Chemokine Production Assay: IL-8; format: cell-based; conditions: human neutrophils, 12 h
Description: (§2) A volume 25 mL of human blood was layered over 15 mL of Histopaque®-1077 and centrifuged at 500 g, R^T, for 30 min with no break applied to the centrifuge. The PBMC band and Histopaque®-1077 layer were removed leaving behind the bottom red layer which was mixed with 40 mL of 1× red blood cell (RBC) lysis buffer (Sigma-Aldrich) was and split into two 50 mL tubes. The volume for both fractions was brought to 50 mL with RBC lysis buffer, mixed by inversion, and then incubated at RT for 10 min. Solutions were centrifuged at 250 g, for 10 min at RT and the supernatant liquids removed. The reddish pellets were re-suspended in 1 mL of RBC lysis buffer and combined. The cell suspension was incubated for 5 min at RT in RBC lysis buffer. After incubation 45 mL of Hanks Balanced Salt Solution with no calcium, magnesium or phenol red (HBSS—) was added, the cell suspension was spun (250 g for 10 min at RT), and supernatant liquids were removed. The white pellet was re-suspended in 1 mL of HBSS—, and cell counts were determined. The neutrophil cell suspension was brought to a concentration of 1.11e6 cells/mL in RPMI complete (Sigma-Aldrich), and 180 μL of cell suspension was transferred to all wells within a sterile 96-well tissue culture treated plate resulting in 2.0×10^5 cells/well. […] After incubation, 10 μL of 2 μg/mL LPS solution in RPMI complete was added to each well except for control wells, which received an additional 10 μL of media. Cells were incubated for 12 h (37° C., 5% CO2), after which plates were centrifuged at 250 g, RT, for 5 min and supernatant liquids were obtained and stored at −80° C. until analyzed via Luminex® Multiplex Assay for various chemokines and cytokines. Three data points were acquired from two different blood donors and averaged.

MIP-1β = test: Neutrophil Chemokine Production Assay: MIP-1β; format: cell-based; conditions: human neutrophils, 12 h
Description: as §2

TNFα = test: Cytokine Release from Human PBMCs: TNFα; format: cell-based; conditions: LPS, 24 hours, Concentration 100 μM
Description: as §1

IL-1β = test: Cytokine Release from Human PBMCs: IL-1β; format: cell-based; conditions: LPS, 24 hours, Concentration 100 μM
Description: as §1

MIP-1α = test: Neutrophil Chemokine Production Assay: MIP-1α; format: cell-based; conditions: human neutrophils, 12 h
Description: as §2

Caco-2 colonocytes = test: Human Caco-2 Barrier Integrity Assay, Study 1; format: cell-based; conditions: Caco-2, + cytokines (TNFα, IFNγ, IL-1β), 48 hours
Description: Caco-2 colonocytes were maintained at 37° C. and 5% CO2 in Dulbecco's Modified Eagle Medium (DMEM) and supplemented with 10% FBS, 1% NEAA, 1% penicillin-streptomycin. At 70-80% confluency, cells were trypsinized and seeded in 0.4 cm^2 transwell collagen I coated membranes with supplemented DMEM in both apical and basolateral compartments. […] After 48 hours, TEER readings were taken again and viability was measured by CellTiter 96® AQueous One Solution Cell Proliferation Assay (Promega).

Compound | IL6 % DMSO control (IL-6) | % IL-8 (Vehicle + LPS = 100%) (IL-8; Conc. 500.0 μM) | % IL-8 (Vehicle + LPS = 100%) (IL-8; Conc. 1000.0 μM) | % MIP-1β (DMSO + LPS = 100%) (MIP-1β; Conc. 500.0 μM) | % MIP-1β (DMSO + LPS = 100%) (MIP-1β; Conc. 1000.0 μM) | TNFα % of DMSO control (TNFα) | IL1β % DMSO control (IL-1β) | % MIP-1α (Vehicle + LPS = 100%) (MIP-1α; Conc. 500.0 μM) | % MIP-1α (Vehicle + LPS = 100%) (MIP-1α; Conc. 1000.0 μM) | % Change in TEER from DMSO (Caco-2 colonocytes; 1 mM) | % Change in TEER from DMSO (Caco-2 colonocytes; 3 mM) | other results
CCC(=O)O[C@@H]1[C@@H](OC(=O)CC)[C@H](OC(=O)/C=C/C(=O)OC)OC[C@H]1OC(=O)CC [Compound 20, Methyl ((2S,3R,4S,5R)-3,4,5-tris(propionyloxy)tetrahydro-2H-pyran-2-yl) fumarate] | – | – | – | – | – | – | – | – | – | – | – | Assay 3 (% Remaining at 24 h) [1]: C (C: >75% of the tested compound remaining); Assay 1 (SGF) (% Remaining @ 1 hour) [2]: C (C: >75% of the tested compound remaining); Assay 2 (SIF) (% @ Remaining 4 hours) [3]: A (A: <25% of the tested compound remaining); EAE score (5-point scale) compared to control (vehicle only) [4]: lower EAE scores
O=C[C@H](O)[C@@H](O)[C@@H](O)CO [L-arabinose] | + ((+) 50% > <90% DMSO) | − (− = >90% Vehicle) | − (− = >90% Vehicle) | − (− = >90% Vehicle) | − (− = >90% Vehicle) | + ((+) 50% > <90% DMSO) | = ((=) 90% > <110% DMSO) | − (− = >90% Vehicle) | − (− = >90% Vehicle) | – | – | Cell viability % DMSO (naïve CD4+ T cells; 0.5 mM): = (90% > <110%: =); Cell viability % DMSO (naïve CD4+ T cells; 1 mM): = (90% > <110%: =); activity at 500 µM (naïve CD4+ T cells; Homo sapiens, 144 h, TGF-β, IL-2, 0.5 mM, read-out: Treg induction % DMSO): 90 to 110%; activity at 1000 µM (naïve CD4+ T cells; Homo sapiens, 144 h, TGF-β, IL-2, 1 mM, read-out: Treg induction % DMSO): 90 to 110%
CC(=O)O [acetate] | = ((=) 90% > <110% DMSO) | − (− = >90% Vehicle) | − (− = >90% Vehicle) | + (+ = <90% Vehicle) | + (+ = <90% Vehicle) | = ((=) 90% > <110% DMSO) | = ((=) 90% > <110% DMSO) | + (+ = <90% Vehicle) | ++ (++ = <70% Vehicle) | − (<125%: −) | − (<125%: −) | % IL-8 (Vehicle + LPS = 100%) (IL-8; Conc. 3000.0 μM): +++ (+++ = <50% Vehicle); % MIP-1β (DMSO + LPS = 100%) (MIP-1β; Conc. 3000.0 μM): +++ (+++ = <50% Vehicle); % MIP-1α (Vehicle + LPS = 100%) (MIP-1α; Conc. 3000.0 μM): +++ (+++ = <50% Vehicle)
CCCC(=O)O [butyrate] | + ((+) 50% > <90% DMSO) | ++ (++ = <70% Vehicle) | ++ (++ = <70% Vehicle) | +++ (+++ = <50% Vehicle) | +++ (+++ = <50% Vehicle) | ++ ((++) <50% DMSO) | − ((−) >110% DMSO) | +++ (+++ = <50% Vehicle) | +++ (+++ = <50% Vehicle) | − (<125%: −) | − (<125%: −) | % Change in TEER from DMSO (Caco-2 colonocytes; 5 mM): ++ (150% > <200%: ++)
CC(O)CC(=O)O (stereo not drawn) [β-hydroxybutyrate] | = ((=) 90% > <110% DMSO) | – | – | – | – | − ((−) >110% DMSO) | − ((−) >110% DMSO) | – | – | – | – | % Change in TEER from DMSO (Caco-2 colonocytes; 200 μM): + (125% > <150%: +); % Change in TEER from DMSO (Caco-2 colonocytes; 2 mM): − (<125%: −)
